{"source": "patent US20050053625A1", "about": "“Method of treating viral infections” (priority 2001, published 2005)", "key": {"HCV": {"tested_on": "HCV", "settings": "cited from earlier work"}, "HBV [1]": {"tested_on": "HBV", "settings": "chronic HBV patients; cited from earlier work"}, "HBV [2]": {"tested_on": "HBV", "experiment": "Secretion of HBV viral particles from Hep G2.2.15 cells (Proteinase K/DNase method)", "format": "cell-based, Hepatitis B virus", "settings": "4.5 mM, 7 days, Hep G2 2.2.15 cells, FIG. 3", "procedure": "Virus secretion into the media was detected by a method that would differentiate between enveloped and un-enveloped DNA. Glucosidase inhibitors reduce the secretion of enveloped virus. Enveloped virus is resistant to Proteinase K/Dnase treatment; un-enveloped virus is not. (+) or (−) indicates the addition of DNase. See text for more details. From left to right: Untreated; 3TC (3.5 μM); […] (4.5 mM).\nInhibition of the ER a-glucosidases inhibits the secretion of enveloped HBV. The first glycan processing events are the removal of the terminal glucose residues in the ER by α-glucosidase I and II (FIG. 2). The α-glucosidase inhibitor N-butyldeoxynojirimycin (NB-DNJ) has been used to study the role of glucose processing in several proteins including human immunodeficiency virus (HIV-1) gp120 (Fisher et al., 1995) and the enzyme tyrosinase which is involved in melanin biosynthesis (Petrescu et al., 1996). […] Hep G2 2.2.15 cells were either left untreated or treated with 3TC (3.5 μM) or the glucosidase inhibitor NB-DNJ (4.5 mM) and 7 days latter the amount of enveloped virus detected in the culture medium by a method that would differentiate between enveloped and un-enveloped virus (Wei et al., 1997). This method realizes upon the resistance of enveloped HBV to limited Proteinse K treatment (Wei et al., 1997). […]"}, "glucosidase": {"tested_on": "glucosidase", "experiment": "Glucosidase / glycan processing inhibition in cells", "format": "cell-based"}, "HBV [3]": {"tested_on": "HBV", "settings": "cited from earlier work"}, "[4]": {"tested_on": "bovine viral diarrhea virus (BVDV)", "experiment": "BVDV in mammalian cells in tissue culture", "format": "cell-based", "source_text": "We have discovered that cytotoxicity resulting from exposure of mammalian cells in tissue culture to bovine viral diarrhea virus (BVDV) is prevented by addition of a glucosidase inhibitor to the tissue culture medium. The glucosidase inhibitors useful according to the present invention include, but are not limited to a derivative of 1,5-dideoxy-1,5-imino-D-glucitol (DNJ), in particular, N-butyl-DNJ (NBDNJ). […] Because BVDV is an accepted tissue culture model of hepatitis C virus (HCV) (Henzler, H.-J. and K. Kaiser (1998) Nature Biotech 16:1077-1078), the compositions and methods described herein for inhibiting morphogenesis of BVDV are also useful for inhibiting morphogenesis of HCV.\nThe substituents on the basic 1,5-dideoxy-1,5-imino-D-glucitol can influence the potency of the compound as an antiviral agent and additionally can preferentially target the molecule to one organ rather than another. […] Methods for comparing the potencies of various substituted compounds are provided in Example 1. […] Methods for determining preferential targeting properties of variously substituted DNJs is provided in Example 8 and FIG. 8 in U.S. Pat. No. 6,465,487."}, "HIV": {"tested_on": "HIV", "settings": "relative to cells not exposed; cited from earlier work"}, "[5]": {"tested_on": "bovine viral diarrhea virus (BVDV)", "settings": "comparison of N-butyl and N-nonyl DNJ; U.S. Pat. No. 6,465,487; cited from earlier work"}, "HBV M protein": {"tested_on": "HBV M protein", "format": "cell-based", "settings": "for secretion of the M protein: indicated concentrations, three days, FIG. 4", "procedure": "Hep G2 cells were transfected with an M only expression vector and the next day the cells divided equally into 6 well trays. Compound was added one day latter at the indicated concentrations and the media changed every two days. The presence of sub-viral particles in the medium was detected via the Abbott Diagnostics Auszyme Monoclonal Diagnostic Kit as per manufacture's directions. For Graph: Y-axis is the OD at 492. X-axis indicates the compounds or cells used in the assay.\nHep G2 cells transfected with the HBV M expression vector were treated with the glucosidase inhibitor NB-DNJ (4.5 mM and 6 days latter the amount of M protein associated with the culture medium (secreted) and the cells (retained) determined by ELISA. See text for more details. For graph: x-axis, Drug treatment and location of protein; for y-axis, % of HBV M protein as compared to untreated\nHep G2 cells were transfected with the M only expression vector and seeded as daughter flasks into 6 well trays. Following 4 days of treatment of glucosidase inhibitor (NB-DNJ (4.5 mM)), drug was either removed (in samples labels as —R) or left on as a control. Day 0 is the time in which drug was removed. […] Day 3 and Day 5 are days after drug removal. For Graph: Y-axis is the OD at 492. X-axis indicates the compounds or cells used in the assay. UN=untreated sample; Un-R is the untreated rebound sample; NB=N-butyl-DNJ; NB-R=N-butyl-DNJ rebound sample.\nHBV M protein secretion is sensitive to glucosidase inhibition. Our previous work has determined that the secretion of HBV sub-viral particles containing the M protein was sensitive to glucosidase inhibition. (Mehta et al., 1997). That is, when Hep G2 2.215 cells were treated with the glucosidase inhibitor NB-DNJ, purified sub-viral particles appeared to lack the M protein. However, it was unclear if this was the result of the M protein's sensitivity to glucosidase inhibition or required some other viral factor. To test this hypothesis, an expression vector (pCMV-MS^−X) directs the expression of HBV M, but no other viral protein, was created. This “M only” expression vector was then used to determine if the M protein itself, in the absence of other viral functions, was sensitive to glucosidase inhibition. In addition, an expression vector, unable to express “M”, but able to express “S” was made on the same plasmid backbone as the “M” only vector, as was used as a control (pCMV-M^−SX). For these studies three imino sugars were used: N-butyl-DNJ, N-nonyl-DNJ and N-nonyl-DGJ. N-butyl-DNJ is our standard glucosidase inhibitor and has been used by several labs for over 10 years (Carlson et al.,1995, Block et al., 1994). […] Briefly, Hep G2 cells were transfected with the expression vectors pCMV HBV MS^−X and pCMV HBV M^−SX and subsequently seeded into fresh 6 well trays. The transfected cells were treated with the indicated concentrations of NB-DNJ, NN-DNJ or NN-DGJ (as a negative control) and three days latter the media analyzed for the presence of the HBV M or HBV S protein as described in Mehta et al, 2001. […] Fore example, concentrations of NN-DNJ which have no impact upon glycan inhibition, as determined by glycan analysis or α-1-acid-glycoprotein secretion, had no effect upon HBV M protein secretion (data not shown). In contrast to the effect of the glucosidase inhibitors on M protein secretion, the secretion of the HBV S protein was insensitive to either NB-DNJ or NN-DNJ providing further proof that the S protein is insensitive to glucosidase inhibition (data not shown; Block et al., 1994, Mehta et al., 1997, Werr & Prange, 1998). To determine if the secretion of the HBV M protein was prevented by another non-glucosidase mechanism, other compounds with the same alkyl side chain (tail) but altered imino sugar head groups, were synthesized. For example, NN-DGJ has the same chain length as NN-DNJ but is not a glucosidase inhibitor. […]"}, "WHV": {"tested_on": "WHV", "settings": "cited from earlier work"}}, "data": [{"compound": "Alpha-interferon", "values": [{"measurement": "patients with long-term improvement", "setting": "HCV", "value": 5, "unit": "%"}, {"measurement": "treated patients achieving certain serological milestones", "setting": "HBV [1]", "value": "7-40%"}]}, {"compound": "OC[C@H]1NC[C@H](O)[C@@H](O)[C@@H]1O", "note": "[DNJ, 1,5-dideoxy-1,5-imino-D-glucitol]", "values": [{"measurement": "secretion of enveloped virus versus un-enveloped virus", "setting": "HBV [2]", "value": "inhibits the secretion of enveloped virus more effectively than un-enveloped virus"}]}, {"compound": "CCCCN1C[C@H](O)[C@@H](O)[C@H](O)[C@H]1CO", "note": "[NB-DNJ, N-butyl-1,5-dideoxy-1,5-imino-D-glucitol]", "values": [{"measurement": "time to return of glucosidase enzyme function after removal of inhibitor", "setting": "glucosidase; not shown or Tan et al, 1994", "value": "less than 3 hours"}, {"measurement": "secretion of HBV viral particles", "setting": "HBV [3]; Hep G2.2.15 cells", "value": "prevents the secretion of HBV viral particles"}, {"measurement": "egress of subviral particles", "setting": "HBV [3]; stable transfected HepG2 cells", "value": "does not prevent egress"}, {"measurement": "egress of the mature HBV virion", "setting": "HBV [3]; stable transfected HepG2 cells", "value": "prevents egress"}, {"measurement": "toxicity toward host cells", "setting": "[4]; conditions inhibiting BVDV-induced cytotoxicity", "value": "little, if any, toxicity"}, {"measurement": "BVDV-induced cytotoxicity", "setting": "[4]; tissue culture", "value": "inhibition of BVDV-induced cytotoxicity was achieved"}, {"measurement": "infectivity of virus particles released from HIV-infected cells", "setting": "HIV", "value": "greatly reduced"}, {"measurement": "potency in inhibiting the intracellular production of BVDV virus", "setting": "[5]", "value": "less potent"}, {"measurement": "amount of M protein in the culture medium after 4 days of treatment", "setting": "HBV M protein; 4.5 mM, 4 days, FIG. 6", "value": "substantial decrease"}, {"measurement": "HBV M protein associated with the cells (retained)", "setting": "HBV M protein; 4.5 mM, 6 days, ELISA, FIG. 5", "value": "retention of the HBV M protein"}, {"measurement": "HBV M protein associated with the culture medium (secreted)", "setting": "HBV M protein; 4.5 mM, 6 days, ELISA, FIG. 5", "value": "reduction in the amount of HBV M protein associated with the culture medium"}, {"measurement": "level of M protein in the culture medium after compound removal", "setting": "HBV M protein; after 4 days treatment, drug removed, FIG. 6", "value": "remained depressed until the 5th day"}, {"measurement": "secretion of the M protein", "setting": "HBV M protein", "value": "prevented the secretion of the M protein"}, {"measurement": "M protein secretion at lower concentrations", "setting": "HBV M protein; lower concentrations, which inhibit lower levels of glucosidase", "value": "able to inhibit M protein secretion"}, {"measurement": "effect on cell number or viability", "setting": "HBV M protein; sustained reduction experiment, data not shown", "value": "not due to an effect on cell number or viability"}]}, {"compound": "CCCCCCCCCN1C[C@H](O)[C@@H](O)[C@@H](O)[C@H]1CO", "note": "[NN-DGJ, reference compound]", "values": [{"measurement": "glucosidase inhibition", "setting": "glucosidase; negative control", "value": "does not inhibit glucosidase"}, {"measurement": "secretion of the M protein", "setting": "HBV M protein", "value": "but not NN-DGJ which does not inhibit glucosidase, reduces the amount of M detected in the medium"}]}, {"compound": "Cc1cn([C@H]2O[C@@H](CO)[C@H](O)[C@H]2F)c(=O)[nH]c1=O", "note": "[L-FMAU, 1-(2-Fluro-5-Methy-B-L-Arabinofuranosyl)-Uracil]", "values": [{"measurement": "decrease in the amount of serum WHsAg", "setting": "WHV; long term treatment", "value": 10, "unit": "fold"}, {"measurement": "immune responses developed", "setting": "WHV; woodchucks, drug alone", "value": "limited cellular and humoral immune responses"}]}]}
